Assay [1] concerns the target Casein kinase I isoform alpha (Homo sapiens) (UniProt P48729). Put plainly: Inhibition of human CK1alpha1 assessed as residual activity at 1 uM using casein as substrate in presence of 33P-ATP by ProQinase assay relative to control.
Assay [2] concerns the target Fibroblast growth factor receptor 2 (Homo sapiens) (UniProt P21802). Put plainly: Inhibition of human FGFR2 assessed as residual activity at 1 uM using PolyEY as substrate in presence of 33P-ATP by ProQinase assay relative to control.
Assay [3] concerns the target T1, Ephrin type-A receptor 1 (Homo sapiens) (UniProt P21709).
T1 sequence (whole entry): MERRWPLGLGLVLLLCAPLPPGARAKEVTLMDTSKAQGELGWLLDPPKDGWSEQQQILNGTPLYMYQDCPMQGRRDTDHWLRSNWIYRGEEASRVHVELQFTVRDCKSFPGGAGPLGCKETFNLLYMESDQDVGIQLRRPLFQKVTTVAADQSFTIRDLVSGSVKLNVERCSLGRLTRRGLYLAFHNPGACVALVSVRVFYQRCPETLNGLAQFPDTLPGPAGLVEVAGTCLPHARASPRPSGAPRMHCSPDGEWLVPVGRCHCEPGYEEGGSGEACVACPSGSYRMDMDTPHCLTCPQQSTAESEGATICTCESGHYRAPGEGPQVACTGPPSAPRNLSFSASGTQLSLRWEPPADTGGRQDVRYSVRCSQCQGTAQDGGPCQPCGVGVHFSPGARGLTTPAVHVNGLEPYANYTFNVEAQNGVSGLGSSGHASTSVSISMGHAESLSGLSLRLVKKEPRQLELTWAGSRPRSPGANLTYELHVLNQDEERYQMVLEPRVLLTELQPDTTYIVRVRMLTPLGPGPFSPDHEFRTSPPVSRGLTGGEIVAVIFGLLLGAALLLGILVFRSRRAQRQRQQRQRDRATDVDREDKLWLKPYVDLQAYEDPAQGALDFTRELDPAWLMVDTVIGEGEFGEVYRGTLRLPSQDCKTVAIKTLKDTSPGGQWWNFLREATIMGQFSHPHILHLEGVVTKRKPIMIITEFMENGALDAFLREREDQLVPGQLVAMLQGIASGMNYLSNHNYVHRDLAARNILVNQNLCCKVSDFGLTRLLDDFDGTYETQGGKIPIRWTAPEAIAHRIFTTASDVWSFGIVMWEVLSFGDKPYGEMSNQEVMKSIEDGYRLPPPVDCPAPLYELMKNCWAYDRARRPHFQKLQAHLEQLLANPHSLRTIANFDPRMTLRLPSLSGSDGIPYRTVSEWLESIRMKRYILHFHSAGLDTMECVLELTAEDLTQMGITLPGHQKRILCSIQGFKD
Put plainly: Inhibition of human EPHA1 assessed as residual activity at 1 uM using polyEY as substrate in presence of 33P-ATP by ProQinase assay relative to control.

Assay [4] concerns the target Serine/threonine-protein kinase ULK1 (Homo sapiens) (UniProt O75385). Nature of the assay: Inhibition of ULK1 (unknown origin) assessed as remaining activity at 1 uM by Kinome scan method relative to control.
The target in assay [5] is MAP kinase-activated protein kinase 5 (Homo sapiens) (UniProt Q8IW41). Put plainly: Inhibition of MAPKAPK5 (unknown origin) assessed as remaining activity at 1 uM by Kinome scan method relative to control.
MAP kinase-activated protein kinase 5 (Homo sapiens), sequence (Q8IW41 whole entry): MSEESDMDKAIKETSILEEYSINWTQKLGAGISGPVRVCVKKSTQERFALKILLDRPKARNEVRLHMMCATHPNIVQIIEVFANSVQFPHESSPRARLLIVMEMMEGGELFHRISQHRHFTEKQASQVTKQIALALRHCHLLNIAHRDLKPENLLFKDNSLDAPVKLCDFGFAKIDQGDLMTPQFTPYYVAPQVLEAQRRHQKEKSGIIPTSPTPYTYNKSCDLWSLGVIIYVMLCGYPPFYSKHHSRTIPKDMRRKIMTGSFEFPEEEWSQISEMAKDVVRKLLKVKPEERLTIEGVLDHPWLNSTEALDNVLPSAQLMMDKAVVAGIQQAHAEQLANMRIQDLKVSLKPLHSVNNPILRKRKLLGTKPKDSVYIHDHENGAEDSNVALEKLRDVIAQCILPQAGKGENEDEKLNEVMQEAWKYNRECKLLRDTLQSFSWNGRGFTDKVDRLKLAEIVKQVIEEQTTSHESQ
In assay [6] the target is T2, cGMP-dependent protein kinase 1 (Homo sapiens) (UniProt Q13976).
T2 sequence (whole entry): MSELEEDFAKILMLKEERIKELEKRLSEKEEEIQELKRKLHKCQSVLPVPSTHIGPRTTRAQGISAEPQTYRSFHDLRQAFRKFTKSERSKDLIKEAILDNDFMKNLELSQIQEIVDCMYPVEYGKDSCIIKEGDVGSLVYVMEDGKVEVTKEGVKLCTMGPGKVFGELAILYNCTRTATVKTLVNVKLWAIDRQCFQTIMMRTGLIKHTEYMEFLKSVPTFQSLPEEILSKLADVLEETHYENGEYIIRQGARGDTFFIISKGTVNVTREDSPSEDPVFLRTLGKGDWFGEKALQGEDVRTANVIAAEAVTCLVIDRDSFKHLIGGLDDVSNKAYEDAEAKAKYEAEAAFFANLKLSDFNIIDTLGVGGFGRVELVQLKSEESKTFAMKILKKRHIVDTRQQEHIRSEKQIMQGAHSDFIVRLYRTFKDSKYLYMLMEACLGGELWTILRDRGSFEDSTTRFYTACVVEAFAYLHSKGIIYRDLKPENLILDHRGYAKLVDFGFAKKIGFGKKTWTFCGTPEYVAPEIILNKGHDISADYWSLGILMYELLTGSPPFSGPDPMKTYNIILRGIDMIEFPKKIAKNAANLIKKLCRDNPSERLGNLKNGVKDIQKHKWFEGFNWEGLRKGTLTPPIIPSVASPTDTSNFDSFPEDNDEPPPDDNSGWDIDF
Put plainly: Inhibition of human PRKG1 assessed as residual activity at 1 uM using 3xChocktide-PKC(19-31) as substrate in presence of 33P-ATP by ProQinase assay relative to control.

The target in assay [7] is NT-3 growth factor receptor (Homo sapiens) (UniProt Q16288). Nature of the assay: Inhibition of human TRKC assessed as residual activity at 1 uM using polyEy as substrate in presence of 33P-ATP by ProQinase assay relative to control.
The target of assay [8] is Casein kinase I isoform gamma-1 (Homo sapiens) (UniProt Q9HCP0). Nature of the assay: Inhibition of human CK1gamma1 assessed as residual activity at 1 uM using casein as substrate in presence of 33P-ATP by ProQinase assay relative to control.
Casein kinase I isoform gamma-1 (Homo sapiens), sequence (Q9HCP0 whole entry, looked up, canonical isoform): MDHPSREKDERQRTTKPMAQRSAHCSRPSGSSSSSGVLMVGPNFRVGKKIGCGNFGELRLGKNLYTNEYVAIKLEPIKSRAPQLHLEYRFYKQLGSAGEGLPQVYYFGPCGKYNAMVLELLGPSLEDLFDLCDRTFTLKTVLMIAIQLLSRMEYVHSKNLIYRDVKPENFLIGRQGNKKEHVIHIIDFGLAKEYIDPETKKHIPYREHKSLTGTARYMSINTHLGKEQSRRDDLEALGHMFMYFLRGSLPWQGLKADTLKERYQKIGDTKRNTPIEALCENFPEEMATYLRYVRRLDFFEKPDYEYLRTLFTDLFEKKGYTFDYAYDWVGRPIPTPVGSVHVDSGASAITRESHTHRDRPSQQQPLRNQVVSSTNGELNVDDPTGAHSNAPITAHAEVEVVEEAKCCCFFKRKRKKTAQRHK
For assay [9], the system named is Epidermal growth factor receptor (Homo sapiens), P00533 [G719C]. Nature of the assay: Inhibition of EGFR G719C mutant (unknown origin) assessed as remaining activity at 1 uM by Kinome scan method relative to control.
Assay [10] concerns the target Tyrosine-protein kinase Blk (Homo sapiens) (UniProt P51451). Nature of the assay: Inhibition of human BLK assessed as residual activity at 1 uM using polyEY as substrate in presence of 33P-ATP by ProQinase assay relative to control.
Assay [11] addresses Activin receptor type-1 (Homo sapiens) (UniProt Q04771). Put plainly: Inhibition of ACVR1 (unknown origin) assessed as remaining activity at 1 uM by Kinome scan method relative to control.
Assay [12] addresses Serine/threonine-protein kinase tousled-like 1 (Homo sapiens) (UniProt Q9UKI8). Put plainly: Inhibition of TLK1 (unknown origin) assessed as remaining activity at 1 uM by Kinome scan method relative to control.
Assay [13] addresses Serine/threonine-protein kinase pim-2 (Homo sapiens) (UniProt Q9P1W9). Put plainly: Inhibition of human PIM2 assessed as residual activity at 1 uM using RBER-GSK3(14-27) as substrate in presence of 33P-ATP by ProQinase assay relative to control.
Assay [14] has as its system Receptor-type tyrosine-protein kinase FLT3 (Homo sapiens), P36888 [UNDEFINED MUTATION]. Nature of the assay: Inhibition of FLT3 ITD mutant (unknown origin) assessed as remaining activity at 1 uM by Kinome scan method relative to control.

Receptor-type tyrosine-protein kinase FLT3 (Homo sapiens), P36888 [UNDEFINED MUTATION], sequence (P36888 whole entry, looked up, change not shown): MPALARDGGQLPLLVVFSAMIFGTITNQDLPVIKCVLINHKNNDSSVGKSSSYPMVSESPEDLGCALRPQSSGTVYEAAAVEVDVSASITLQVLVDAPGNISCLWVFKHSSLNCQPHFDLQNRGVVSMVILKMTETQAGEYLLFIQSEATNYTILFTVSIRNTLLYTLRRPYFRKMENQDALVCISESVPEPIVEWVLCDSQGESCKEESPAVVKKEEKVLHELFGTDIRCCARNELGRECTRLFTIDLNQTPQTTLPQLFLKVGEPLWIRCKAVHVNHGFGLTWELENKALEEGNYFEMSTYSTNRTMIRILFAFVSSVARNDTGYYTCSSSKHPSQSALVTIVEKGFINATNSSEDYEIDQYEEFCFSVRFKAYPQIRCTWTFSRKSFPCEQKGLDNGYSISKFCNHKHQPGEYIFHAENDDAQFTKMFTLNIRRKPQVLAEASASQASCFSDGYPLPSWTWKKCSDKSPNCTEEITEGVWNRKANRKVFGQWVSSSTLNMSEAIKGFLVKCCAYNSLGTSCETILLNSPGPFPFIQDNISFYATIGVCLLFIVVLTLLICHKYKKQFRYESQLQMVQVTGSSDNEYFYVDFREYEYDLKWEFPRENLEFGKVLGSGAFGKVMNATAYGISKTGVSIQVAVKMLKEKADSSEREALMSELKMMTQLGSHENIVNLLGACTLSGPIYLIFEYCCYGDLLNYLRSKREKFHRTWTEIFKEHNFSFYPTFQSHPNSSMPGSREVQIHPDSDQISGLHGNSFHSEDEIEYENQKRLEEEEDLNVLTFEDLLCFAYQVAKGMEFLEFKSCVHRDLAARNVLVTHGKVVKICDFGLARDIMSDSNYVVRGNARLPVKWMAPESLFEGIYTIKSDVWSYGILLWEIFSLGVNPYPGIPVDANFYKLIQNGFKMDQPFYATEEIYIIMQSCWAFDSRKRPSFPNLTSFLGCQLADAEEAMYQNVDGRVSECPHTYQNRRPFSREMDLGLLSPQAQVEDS
Tyrosine-protein kinase Blk (Homo sapiens), sequence (P51451 2-505 limits assumed): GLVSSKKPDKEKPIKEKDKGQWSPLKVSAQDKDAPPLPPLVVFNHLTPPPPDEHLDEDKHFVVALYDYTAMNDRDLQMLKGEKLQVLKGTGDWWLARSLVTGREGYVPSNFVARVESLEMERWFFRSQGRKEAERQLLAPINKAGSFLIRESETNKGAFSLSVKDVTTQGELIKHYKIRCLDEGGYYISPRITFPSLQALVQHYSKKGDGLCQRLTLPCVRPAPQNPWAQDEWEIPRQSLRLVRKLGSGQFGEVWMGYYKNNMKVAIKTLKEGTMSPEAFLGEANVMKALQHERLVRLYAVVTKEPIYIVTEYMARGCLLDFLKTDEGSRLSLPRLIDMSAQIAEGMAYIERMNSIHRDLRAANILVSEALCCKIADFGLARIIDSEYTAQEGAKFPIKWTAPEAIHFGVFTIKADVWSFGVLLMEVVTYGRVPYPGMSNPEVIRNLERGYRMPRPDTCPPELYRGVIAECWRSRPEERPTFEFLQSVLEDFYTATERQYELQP
Casein kinase I isoform alpha (Homo sapiens), sequence (P48729 2-337 limits assumed): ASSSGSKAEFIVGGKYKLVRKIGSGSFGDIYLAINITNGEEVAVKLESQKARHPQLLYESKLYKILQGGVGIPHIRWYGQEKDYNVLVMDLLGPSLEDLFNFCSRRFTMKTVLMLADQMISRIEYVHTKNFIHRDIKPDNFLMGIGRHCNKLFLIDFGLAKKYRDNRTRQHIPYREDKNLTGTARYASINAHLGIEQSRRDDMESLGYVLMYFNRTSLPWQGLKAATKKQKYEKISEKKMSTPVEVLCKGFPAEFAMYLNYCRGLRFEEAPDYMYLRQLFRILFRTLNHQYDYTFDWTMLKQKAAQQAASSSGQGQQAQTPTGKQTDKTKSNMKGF
Serine/threonine-protein kinase pim-2 (Homo sapiens), sequence (Q9P1W9 whole entry, looked up): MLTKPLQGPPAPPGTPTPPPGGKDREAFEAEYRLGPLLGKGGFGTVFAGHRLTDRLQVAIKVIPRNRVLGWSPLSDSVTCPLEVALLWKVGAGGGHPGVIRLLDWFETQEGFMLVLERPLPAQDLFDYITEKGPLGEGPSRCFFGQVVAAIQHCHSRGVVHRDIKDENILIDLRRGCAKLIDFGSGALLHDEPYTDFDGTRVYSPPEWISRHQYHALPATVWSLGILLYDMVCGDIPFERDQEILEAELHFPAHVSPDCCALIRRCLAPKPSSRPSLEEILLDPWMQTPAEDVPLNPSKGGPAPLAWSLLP
Activin receptor type-1 (Homo sapiens), sequence (Q04771 whole entry): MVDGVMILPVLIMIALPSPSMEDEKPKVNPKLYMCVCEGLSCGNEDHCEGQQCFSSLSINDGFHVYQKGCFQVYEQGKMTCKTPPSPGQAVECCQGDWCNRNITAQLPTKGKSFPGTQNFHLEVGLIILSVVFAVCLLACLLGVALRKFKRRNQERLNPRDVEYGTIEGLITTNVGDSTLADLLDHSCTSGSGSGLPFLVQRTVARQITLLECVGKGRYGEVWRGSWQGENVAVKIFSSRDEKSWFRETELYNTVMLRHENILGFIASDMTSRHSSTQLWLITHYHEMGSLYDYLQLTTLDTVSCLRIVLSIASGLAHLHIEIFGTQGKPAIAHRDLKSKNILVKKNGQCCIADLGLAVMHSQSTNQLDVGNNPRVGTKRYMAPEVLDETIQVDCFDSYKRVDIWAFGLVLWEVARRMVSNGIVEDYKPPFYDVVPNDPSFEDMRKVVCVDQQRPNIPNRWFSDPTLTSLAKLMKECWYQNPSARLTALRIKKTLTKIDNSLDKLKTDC
Serine/threonine-protein kinase ULK1 (Homo sapiens), sequence (O75385 whole entry): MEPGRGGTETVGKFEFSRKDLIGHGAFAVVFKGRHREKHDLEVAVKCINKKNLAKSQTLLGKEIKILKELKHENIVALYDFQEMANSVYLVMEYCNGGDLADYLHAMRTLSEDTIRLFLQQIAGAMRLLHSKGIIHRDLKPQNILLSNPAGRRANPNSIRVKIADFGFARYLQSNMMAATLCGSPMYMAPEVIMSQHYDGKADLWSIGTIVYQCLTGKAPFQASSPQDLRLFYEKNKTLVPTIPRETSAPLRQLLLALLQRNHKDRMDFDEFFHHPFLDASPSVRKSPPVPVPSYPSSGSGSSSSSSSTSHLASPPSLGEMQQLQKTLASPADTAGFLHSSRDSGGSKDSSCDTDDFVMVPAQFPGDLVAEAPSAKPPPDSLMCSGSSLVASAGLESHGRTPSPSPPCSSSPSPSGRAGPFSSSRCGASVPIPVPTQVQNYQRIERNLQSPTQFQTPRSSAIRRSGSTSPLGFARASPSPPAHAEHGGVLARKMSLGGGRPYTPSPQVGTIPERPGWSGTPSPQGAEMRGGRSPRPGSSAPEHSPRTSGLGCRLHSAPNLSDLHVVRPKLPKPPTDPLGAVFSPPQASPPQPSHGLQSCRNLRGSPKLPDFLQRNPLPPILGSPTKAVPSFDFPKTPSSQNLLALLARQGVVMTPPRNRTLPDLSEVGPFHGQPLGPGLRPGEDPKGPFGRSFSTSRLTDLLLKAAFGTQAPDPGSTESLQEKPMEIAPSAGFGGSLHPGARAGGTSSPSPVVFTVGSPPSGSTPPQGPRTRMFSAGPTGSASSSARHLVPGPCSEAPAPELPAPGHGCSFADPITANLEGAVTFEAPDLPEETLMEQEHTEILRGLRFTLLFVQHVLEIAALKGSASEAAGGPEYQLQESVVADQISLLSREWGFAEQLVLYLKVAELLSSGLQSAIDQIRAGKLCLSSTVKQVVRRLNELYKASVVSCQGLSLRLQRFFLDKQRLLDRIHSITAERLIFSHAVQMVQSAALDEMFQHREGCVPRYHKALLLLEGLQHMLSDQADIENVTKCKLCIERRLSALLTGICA

As for `O=C1c2ccc(Nc3ccc(F)cc3F)cc2CCc2ccc(OC[C@H](O)CO)cc21` [Skepinone-L], the Activity in [1] was determined as 97%; in assay [2], 125%; in [3], 115%; in [4] it was 100%; in assay [5], 100%; in assay [6], 110%. Moreover, the Activity was 120% in assay [7]; 97% in [8]; 81% in assay [9]; 107% in assay [10]; 99% in [11]; 100% in assay [12]. The figures for the Activity in [13] and in [14] were 97% and 96%, respectively.

The record behind these values is ChEMBL document CHEMBL5696441 (Nat Chem Biol, 2011).
